Tests used:
mature coronary vessels = assay: Immunohistochemistry, smooth muscle α-actin positive vessels at infarction border zone; type: in vivo, mouse
Description: Animals and Surgical procedures. Mice: Myocardial infarctions were produced in seventy C57BL/6J male mice at 16 weeks of age (25-30 g) by ligation of the left anterior descending (LAD) coronary artery as described (Garner et al., 2003). All animal protocols were reviewed and approved by the University of Texas Southwestern Medical School Institutional Animal Care Advisory Committee and were in compliance with the rules governing animal use as published by the NIH. Mice were sedated in an isoflurane chamber (5%) for 60 seconds until self-designed coaxial mask could be safely applied. The mask supplied continuous isoflurane (2.0%) and oxygen (98.0%) under positive pressure from a Harvard small animal respirator throughout the procedures. Immediately after ligation mice were injected with 200 ng of peptide in […] or […] PBS in collagen intracardially in the infarction border, and with […] PBS intraperitoneally as described (Bock-Marquette et al., 2004). Intraperitoneal injections were repeated every three days after ligation. Effective doses of the peptides were calculated based on optimal in vitro cell migration effect and on biodistribution calculations of full length TB4 (Mora et al., 1997). The inventors administered buprenorphine (0.05 mg/kg) for post-operative pain control. Hearts were removed 1, 14 and 21 days after ligation and processed for further investigations.
Immunohistochemistry. Adult mouse cardiac tissue was fixed in 4% paraformaldehyde and sections were analyzed by immunohistochemistry. Hearts were sectioned at eight levels from the base to the apex. Serial sections were immunostained with primary antibodies against Pecam-1 and Wt-1 (1:50) (Santa Cruz), Smooth muscle a-actin (1:220) (Sigma), Sarcomeric a-actinin (1:200) (Sigma), Connexin43 (1:200) (Invitrogen), pS368-Connexin43 (1:200) (Cell Signaling Technology) as recommended by the manufacturer. Terminal deoxynucleotidyl transferase dUTP nick end labeling (TUNEL) assay was performed using In Situ Cell Detection kit (Roche). Number of sm a-actin positive capillaries and Wt-1 positive cells were counted at the infarction border zone in high power photographs at all levels of the sections in three peptide, TB4 and PBS treated hearts respectively.

adult infarcted pigs = assay: Ischemia reperfusion (acute myocardial infarction) in pigs with retroinfusion of peptides; type: in vivo, pig
Method: Pigs: German pigs were purchased from the animal research department of the Ludwig-Maximilians-University (Oberschleissheim, Germany). Animal care and all experimental procedures were performed in accordance to the German and NIH animal legislation guidelines and were approved by the Bavarian Animal Care and Use Committee (AZ 55.2-1-54-2531-26/09). All animal experiments were conducted at the Walter Brendel Centre of Experimental Medicine, University of Munich.
Ischemia reperfusion experiments: Pigs (n=5/experimental group) were anesthetized and instrumented as described previously (Hinkel et al., 2008). Briefly, a balloon was placed in the left anterior descending artery (LAD) distal to the bifurcation of the first diagonal branch and inflated for 60 min. Correct localization of the coronary occlusion and patency of the first diagonal branch were ensured by injection fluoroscopy. Regional application of TB4 peptides or saline solution was performed via selective pressure regulated retroinfusion for 10 min into the anterior interventricular vein (AIV) draining the LAD-perfused myocardium (Kupatt et al., 2005).
Global myocardial function: At day 0 before ischemia induction and after 24 h of reperfusion myocardial function was obtained via Millar pressure tip catheter. Therefore the Millar pressure tip catheter was placed in the left ventricle and left ventricular pressure was recorded for off-line analysis.
Regional myocardial function: 24 hours after induction of ischemia, sternotomy was performed and ultrasonic crystals were placed subendocardial into the area at risk, the infracted area as well as into the Cx perfusion area in a standardized manner. Subendocardial segment shortening (SES) was assessed under resting heart rate as well as at 120 and 150 beats/min atrial pacing (for 1 min/each).
Infarct size and local inflammation: For assessment of infarct size methylene blue was injected in the left ventricle for negative staining of the AAR and tetrazolium red was applied into the LAD for viability staining in the infracted area. Thereafter, left ventricle was cut into slices (5 mm thick), and subjected to digital photography. Planimetry of different slices was conducted via ImageJ for assessment of infarct size in % of AAR. Tissue samples from infarct, area at risk and non-ischemic control were harvested for leukocyte recruitment. Myeloperoxidase assays were performed as previously described (Kupatt et al., 2005).

Akt = assay: Western blot anti-phosphoS473-Akt on heart lysates after coronary ligation; type: in vivo, mouse; conditions: 24 hours after treatment
Description: Animals and Surgical procedures. Mice: Myocardial infarctions were produced in seventy C57BL/6J male mice at 16 weeks of age (25-30 g) by ligation of the left anterior descending (LAD) coronary artery as described (Garner et al., 2003). All animal protocols were reviewed and approved by the University of Texas Southwestern Medical School Institutional Animal Care Advisory Committee and were in compliance with the rules governing animal use as published by the NIH. Mice were sedated in an isoflurane chamber (5%) for 60 seconds until self-designed coaxial mask could be safely applied. The mask supplied continuous isoflurane (2.0%) and oxygen (98.0%) under positive pressure from a Harvard small animal respirator throughout the procedures. […] Effective doses of the peptides were calculated based on optimal in vitro cell migration effect and on biodistribution calculations of full length TB4 (Mora et al., 1997). […]
Western blot. […] The protein fraction was isolated from the interphase of the Trizol purification as recommended by the manufacturer; 10 μg of the total protein was loaded and analyzed by Western blot with protein-specific primary antibodies: VEGF, p-Marcks, p-Akt, and GAPDH (1:100) (Santa Cruz), Connexin43 (1:50) (Invitrogen), N-Cadherin (1:5000) (BD Biosciences) and pS368-Connexin43 (1:1000) (Cell Signaling Technology).

Thymosin β4 [TB4]
number of mature, smooth muscle α-actin positive vessels (mature coronary vessels; 21 days / three weeks, compared to PBS): increase the number of mature, smooth muscle a-actin positive vessels
number of mature coronary vessels (mature coronary vessels; two weeks after treatment, compared to PBS (FIG. 10)): increases
left ventricular end-diastolic pressure (adult infarcted pigs; after ischemia and 24 h reperfusion): 10.4+/−0.8 mmHg
regional myocardial function in the infarcted area (adult infarcted pigs; at rest and under increased heart rate (atrial pacing)): significantly improved
infarct size (adult infarcted pigs; in % of AAR, 60 min occlusion, retroinfusion at onset of reperfusion, n=5): 35+/−3%
post-ischemic inflammatory leukocyte influx (myeloperoxidase activity) (adult infarcted pigs; ischemic heart tissue after retroinfusion): reduced post-ischemic inflammatory leukocyte influx
Akt activation (phosphoS473-Akt) (Akt): increased Akt activation

Source: US20110251128A1, “THYMOSIN Beta4 PEPTIDES PROMOTE TISSUE REGENERATION” (The Board of Regents of the University of Texas System, priority 2010, published 2011)
